19 compounds from patent US11319324B2, “Pyrazolo-pyrrolo-pyrimidine-dione derivatives as P2X3 inhibitors” (Bayer Aktiengesellschaft, priority 2017, dated 2022) can be followed below.

Holding throughout (type): cell-based
The target in test [1] is T1, human P2X3 receptor (Homo sapiens, UniProt P56373).
T1 sequence (P56373 1-397): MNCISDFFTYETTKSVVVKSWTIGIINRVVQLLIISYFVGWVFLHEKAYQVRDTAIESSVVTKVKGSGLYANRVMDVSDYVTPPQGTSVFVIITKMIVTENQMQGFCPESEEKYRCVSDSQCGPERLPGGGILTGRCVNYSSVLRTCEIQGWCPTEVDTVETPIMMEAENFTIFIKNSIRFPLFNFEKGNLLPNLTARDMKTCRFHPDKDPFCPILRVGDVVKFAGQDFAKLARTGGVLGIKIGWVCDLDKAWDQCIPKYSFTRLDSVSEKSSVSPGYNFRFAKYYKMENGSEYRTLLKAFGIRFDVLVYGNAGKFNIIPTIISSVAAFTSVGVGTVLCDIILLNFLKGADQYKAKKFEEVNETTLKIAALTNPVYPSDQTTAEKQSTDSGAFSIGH
Description: Intracellular calcium measurement, antagonist activity at human P2X3 receptors (hP2X3 1321N1), Fluo8. On the set-up: expressed in transfected cells; host or cells: human astrocytoma 1321N1 (1312N1 [sic]). The settings on record: column 3); 1321N1 cells, human P2X3, Fluo8, agonist ATP at EC50. In outline:
(§1)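 Inhibition of ATP-triggered Ca2+ transients is measured in 1321N1 cells expressing P2X3 homotrimers or P2X2/3 heterotrimers.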
On the technique in general: Calcium flux is commonly read through the fluorescence of an indicator in the cells.

The target in test [2] is T2, human P2X2/3 receptors (Homo sapiens, UniProt P56373+Q9UBL9).
T2 construct: expressed in transfected cells; host or cells: human astrocytoma 1321N1 (1312N1 [sic])
T2 sequence (P56373 1-397): T1 sequence (P56373 1-397)
T2 sequence (Q9UBL9 1-471): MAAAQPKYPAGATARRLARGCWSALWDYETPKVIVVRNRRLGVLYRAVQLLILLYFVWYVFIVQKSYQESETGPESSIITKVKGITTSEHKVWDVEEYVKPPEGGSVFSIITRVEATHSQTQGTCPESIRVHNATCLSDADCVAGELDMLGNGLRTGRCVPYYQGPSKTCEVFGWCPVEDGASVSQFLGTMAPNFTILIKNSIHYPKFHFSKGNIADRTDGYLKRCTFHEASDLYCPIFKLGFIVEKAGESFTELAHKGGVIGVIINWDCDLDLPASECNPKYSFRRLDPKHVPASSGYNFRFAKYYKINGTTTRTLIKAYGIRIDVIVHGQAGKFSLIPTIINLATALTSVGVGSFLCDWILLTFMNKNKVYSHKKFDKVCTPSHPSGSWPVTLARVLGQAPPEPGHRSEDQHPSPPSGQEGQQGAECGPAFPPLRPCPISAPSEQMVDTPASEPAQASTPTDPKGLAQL
Description: Intracellular calcium measurement, antagonist activity at human P2X2/3 receptors (hP2X23 1321N1), Fluo8. To be noted: for IC50: column 4); 1321N1 cells, human P2X2/3, Fluo8, agonist ATP at EC50; read-out: 4) hP2X2/3 IC50 [nM] (1321N1); for hP2X23/hP2X3* Selectivity (1321N1): ratio of column 4) hP2X2/3 to column 3) hP2X3, 1321N1. In outline:
as §1

Test [3] addresses T1, human P2X3 receptor. Put plainly: Intracellular calcium measurement to assess antagonist activity at human P2X3 receptors (hP2X3 CHO), photina luminescence. Also noted: expressed in transfected cells; host or cells: Chinese hamster ovary (CHO) cells. The settings on record: column 2), CHO cells, agonist α,β-methylene-ATP at EC50. The method in brief:
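CHO cells stably expressing human P2X3 and mitochondrial photina, plated the day before at 30 °C, then loaded 3 h at 37 °C in 2 mM Ca-tyrode buffer with 5 μg/ml coelenterazine. Agonist-evoked calcium luminescence read immediately; inhibition seen as signal decrease.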

In test [4] the target is T1, human P2X3 receptor. Put plainly: Intracellular calcium measurement to assess antagonist activity at human P2X3 receptors (hP2X3 FLIPR). On the set-up: expressed in transfected cells; host or cells: human astrocytoma 1321N1 (1312N1 [sic]). To be noted: head prints (1321N1); read-out: 1) hP2X3 IC50 [nM] (1321N1). The protocol:
1) Intracellular Calcium Measurement to Assess Antagonist Activity at Human P2X3 Receptors (hP2X3 FLIPR)
A fluorescent imaging plate reader (FLEX/FLIPR station; Molecular Devices) was used to monitor intracellular calcium levels using the calcium-chelating dye Fluo-4 (Molecular Probes). The excitation and emission wavelengths used to monitor fluorescence were 470-495 nm and 515-575 nm, respectively. The human astrocytoma […] cells expressing purinergic receptors P2X3 (human) were plated at a density of 15,000 cells/well in collagen—coated 384-well plates approximately 20 hours before beginning the assay. […] The dye supernatant was removed and replaced with 45 μl probenecid buffer (Hank's balanced salt solution, 20 mM HEPES, 0.5 mM CaCl2, 0.5 mM MgCl2, 0.1% BSA, 5 mM probenecid, 10 mM D-glucose monohydrate, pH=7.4). The test compounds were added in a volume of 5 μl and allowed to incubate for 30 min at 37° C. The final assay DMSO concentration is 1%. […] The fluorescence was measured for an interval of 90 sec at 2 sec intervals and analyzed based on the increase in peak relative fluorescence units (RFU) compared to the basal fluorescence. Peak fluorescence was used to determine the response to agonist obtained at each concentration of test compound by the following equation: Response=100*(RFU(test compound)−RFU(control))/(RFU(DMSO)−RFU(control))
The Examples were tested in triplicates per plate and mean values were plotted in Excel XLFit to determine IC50 values at the human P2X3 and human P2X2/3 receptors, percentage of maximal inhibition and the Hill coefficients.

`COCC(C)N1Cc2c(n(CC(=O)Nc3ccc(F)cn3)c3cc(C(=O)N(C)C)nn3c2=O)C1=O` (racemic) [Example 140, 4-{2-[(5-fluoropyridin-2-yl)amino]-2-oxoethyl}-6-[(±)-1-methoxypropan-2-yl]-N,N-dimethyl-5,8-dioxo-5,6,7,8-tetrahydro-4H-pyrazolo[1,5-a]pyrrolo[3,4-d]pyrimidine-2-carboxamide]: the IC50 in test [1] was 115 nM; in test [2], more than 20900 nM; in test [3] it was 55 nM; in test [4] it was 57 nM. The “hP2X23/hP2X3* Selectivity (1321N1)” value in test [2] was more than 183.
On to `COCC(C)N1Cc2c(n(CC(=O)Nc3ccc(F)cn3)c3cc(CO)nn3c2=O)C1=O` (racemic) [Example 141, N-(5-fluoropyridin-2-yl)-2-{2-(hydroxymethyl)-6-[(±)-1-methoxypropan-2-yl]-5,8-dioxo-5,6,7,8-tetrahydro-4H-pyrazolo[1,5-a]pyrrolo[3,4-d]pyrimidin-4-yl}acetamide], for which the IC50 in test [4] turned out to be 125 nM.
As to `CC(C)N1Cc2c(n(CC(=O)Nc3ccc(F)cn3)c3cc(C(C)(C)C)nn3c2=O)C1=O` [Example 1, 2-[2-tert-butyl-5,8-dioxo-6-(propan-2-yl)-5,6,7,8-tetrahydro-4H-pyrazolo[1,5-a]pyrrolo[3,4-d]pyrimidin-4-yl]-N-(5-fluoropyridin-2-yl)acetamide], the IC50 in test [1] was 35 nM; in test [2], 4900 nM; in test [3] it was 35 nM; in test [4] it was 22 nM. Moreover, the “hP2X23/hP2X3* Selectivity (1321N1)” value in test [2] is reported as 138.
Turning to `CC(C)N1Cc2c(n(CC(=O)Nc3ccccn3)c3cc(C(C)(C)C)nn3c2=O)C1=O` [Example 2], the IC50 in test [1] is 185 nM; in test [2], more than 22000 nM; in test [3] it was 135 nM; in test [4], 219 nM. In test [2], the “hP2X23/hP2X3* Selectivity (1321N1)” value is reported as more than 119.
For `CC(C)N1Cc2c(n(CC(=O)Nc3ccc(Cl)cn3)c3cc(C(C)(C)C)nn3c2=O)C1=O` [Example 3], in that order: 37 nM, 2850 nM, 147 nM, 32 nM and 78.
The matching figures for `Cc1ccc(NC(=O)Cn2c3c(c(=O)n4nc(C(C)(C)C)cc24)CN(C(C)C)C3=O)nc1` [Example 4]: 177 nM, 9600 nM, 345 nM, 147 nM and 54.
For the compound `CC(C)c1cc2n(CC(=O)Nc3ccc(F)cn3)c3c(c(=O)n2n1)CN(C(C)C)C3=O` [Example 7], the IC50 in test [1] was 48 nM; in test [2] it was 8000 nM; in test [3] it was 71 nM; in test [4], 28 nM. Moreover, the “hP2X23/hP2X3* Selectivity (1321N1)” value in test [2] is listed as 167.
The matching figures for `CC(C)c1cc2n(CC(=O)Nc3ccc(Cl)cn3)c3c(c(=O)n2n1)CN(C(C)C)C3=O` [Example 8]: 48 nM, 3650 nM, 51 nM, 50 nM and 76.
The matching figures for `Cc1ccc(NC(=O)Cn2c3c(c(=O)n4nc(C(C)C)cc24)CN(C(C)C)C3=O)nc1` [Example 9]: 263 nM, more than 19900 nM, 220 nM, 107 nM and more than 76.
For `CC(C)[C@H](C)N1Cc2c(n(CC(=O)Nc3ccc(F)cn3)c3cc(C(C)(C)C)nn3c2=O)C1=O` [Example 10], in that order: 317 nM, more than 32000 nM, 38 nM, 24 nM and more than 101.
For `Cc1ccc(NC(=O)Cn2c3c(c(=O)n4nc(C(C)(C)C)cc24)CN([C@@H](C)C(C)C)C3=O)nc1` [Example 11], the IC50 in test [1] is 657 nM; in test [2], more than 20600 nM; in test [3], 750 nM; in test [4], 376 nM. Further, in test [2], the “hP2X23/hP2X3* Selectivity (1321N1)” value is reported as more than 31.
For `CC(C)[C@H](C)N1Cc2c(n(CC(=O)Nc3ccc(Cl)cn3)c3cc(C(C)(C)C)nn3c2=O)C1=O` [Example 12], in that order: 225 nM, 8800 nM, 110 nM, 59 nM and 39.
For `CC(C)(C)c1cc2n(CC(=O)Nc3ccc(F)cn3)c3c(c(=O)n2n1)CN(CC1CC1)C3=O` [Example 13], in that order: 27 nM, 5650 nM, 51 nM, 21 nM and 212.
In the case of `CC[C@@H](C)N1Cc2c(n(CC(=O)Nc3ccc(F)cn3)c3cc(C(F)(F)F)nn3c2=O)C1=O` [Example 14], the IC50 in test [1] stood at 59 nM; in test [2] it was 11500 nM; in test [3], 60 nM; in test [4] it was 30 nM. Besides, in test [2], the “hP2X23/hP2X3* Selectivity (1321N1)” value was found to be 194.
The matching figures for `CC[C@@H](C)N1Cc2c(n(CC(=O)Nc3ccc(Cl)cn3)c3cc(C(F)(F)F)nn3c2=O)C1=O` [Example 15]: 53 nM, 4650 nM, 49 nM, 21 nM and 88.
The matching figures for `CC[C@@H](C)N1Cc2c(n(CC(=O)Nc3ccc(C)cn3)c3cc(C(F)(F)F)nn3c2=O)C1=O` [Example 16]: more than 16600 nM, more than 100000 nM, 320 nM, 100 nM and more than 6.
In the case of `CC(C)(C)c1cc2n(CC(=O)Nc3ccc(F)cn3)c3c(c(=O)n2n1)CN(CCOCc1ccccc1)C3=O` [Example 34, 2-{6-[2-(Benzyloxy)ethyl]-2-tert-butyl-5,8-dioxo-5,6,7,8-tetrahydro-4H-pyrazolo[1,5-a]pyrrolo[3,4-d]pyrimidin-4-yl}-N-(5-fluoropyridin-2-yl)acetamide], the IC50 in test [4] amounted to 4 nM.
As to `Cc1cc2n(CC(=O)Nc3ccc(Cl)cn3)c3c(c(=O)n2n1)CN(C(C)C)C3=O` [Example 42], in test [4], the IC50 was 35 nM.
For the compound `Cc1ccc(NC(=O)Cn2c3c(c(=O)n4nc(C(C)(C)C)cc24)CN(C2COC2)C3=O)nc1` [Example 47], the IC50 was determined as 1100 nM in test [3] and 1220 nM in test [4].
